According to US20150105252A1, “SUBSTITUTED PYRAZOLES AS HERBICIDES” (E I DU PONT DE NEMOURS AND COMPANY, priority 2013, published 2015):

Key:
[1] = test system: bromegrass, downy; experiment: Test D preemergence; format: in vivo, Bromus tectorum; details: for Plant response rating, Bromegrass, Downy: Preemergence, scale 0 to 100
In short: (§1)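 Whole-plant herbicidal activity; pre- and postemergence sprays. Soil: silt loam (pre); peat/vermiculite medium (post, 1–4 leaf). Assessment: 14–21 days, visual, 0 = no effect, 100 = complete control.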

[2] = test system: sedge, umbrella; experiment: Test C flooded paddy test; format: in vivo, Cyperus difformis; details: Flood
In short: (§2)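 Compound was added to standing water 3 cm above soil, flood maintained, and plants held in a greenhouse before visual scoring against controls at 13 to 15 days.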

[3] = test system: foxtail, green; experiment: Test D preemergence; format: in vivo, Setaria viridis; details: for Plant response rating, Foxtail, Green: Preemergence, scale 0 to 100
In short: as §1

[4] = test system: barnyardgrass; experiment: Test C flooded paddy test; format: in vivo, Echinochloa crus-galli; details: Flood
In short: as §2

[5] = test system: speedwell; experiment: Test D postemergence; format: in vivo, Veronica persica; details: scale 0 to 100
In short: as §1

[6] = test system: wheat, spring; experiment: Test D preemergence; format: in vivo, Triticum aestivum; details: for Plant response rating, Wheat, Spring: Preemergence, scale 0 to 100
In short: as §1

[7] = test system: wheat, winter; experiment: Test D preemergence; format: in vivo, Triticum aestivum; details: for Plant response rating, Wheat, Winter: Preemergence, scale 0 to 100
In short: as §1

[8] = test system: oilseed rape; experiment: Test D preemergence; format: in vivo, Brassica napus; details: for Plant response rating, Oilseed Rape: Preemergence, scale 0 to 100
In short: as §1

[9] = test system: chickweed; experiment: Test D postemergence; format: in vivo, Stellaria media; details: scale 0 to 100
In short: as §1

[10] = test system: pigweed; experiment: Test D postemergence; format: in vivo, Amaranthus retroflexus; details: scale 0 to 100
In short: as §1

[11] = test system: bluegrass; experiment: Test D postemergence; format: in vivo, Poa annua; details: scale 0 to 100
In short: as §1

[12] = test system: blackgrass; experiment: Test D postemergence; format: in vivo, Alopecurus myosuroides; details: scale 0 to 100
In short: as §1

[13] = test system: rice; experiment: Test C flooded paddy test; format: in vivo, Oryza sativa; details: Flood
In short: as §2

[14] = test system: ducksalad; experiment: Test C flooded paddy test; format: in vivo, Heteranthera limosa; details: Flood
In short: as §2

[15] = test system: deadnettle; experiment: Test D preemergence; format: in vivo, Lamium amplexicaule; details: for Plant response rating, Deadnettle: Preemergence, scale 0 to 100
In short: as §1

[16] = test system: blackgrass; experiment: Test D preemergence; format: in vivo, Alopecurus myosuroides; details: for Plant response rating, Blackgrass: Preemergence, scale 0 to 100
In short: as §1

[17] = test system: chickweed; experiment: Test D preemergence; format: in vivo, Stellaria media; details: for Plant response rating, Chickweed: Preemergence, scale 0 to 100
In short: as §1

[18] = test system: deadnettle; experiment: Test D postemergence; format: in vivo, Lamium amplexicaule; details: scale 0 to 100
In short: as §1

[19] = test system: radish, wild; experiment: Test D preemergence; format: in vivo, Raphanus raphanistrum; details: for Plant response rating, Radish, Wild: Preemergence, scale 0 to 100
In short: as §1

[20] = 16 g ai/ha, taken as preemergence
[21] = 31 g ai/ha, scale 0 to 100 (0 no effect, 100 complete control)
[22] = 62 g ai/ha, scale 0 to 100 (0 no effect, 100 complete control)

## Cc1cc(C(=O)NCC(F)(F)F)nn1Cc1ccnc(C(F)(F)F)c1 [Compound 74]
[1]; [20]
  Plant response rating (scale 0 to 100), Bromegrass, Downy: 0
[1]; 31 g ai/ha
  Plant response rating, Bromegrass, Downy: 0
[1]; 62 g ai/ha
  Plant response rating, Bromegrass, Downy: 5
[1]; 125 g ai/ha
  Plant response rating, Bromegrass, Downy: 0
[2]; [21]
  Plant response rating, Sedge, Umbrella: 0
[2]; [22]
  Plant response rating, Sedge, Umbrella: 0
[2]; 125 g ai/ha, scale 0 to 100
  Plant response rating, Sedge, Umbrella: 0
[2]; 250 g ai/ha, scale 0 to 100
  Plant response rating, Sedge, Umbrella: 90
[3]; [20]
  Plant response rating (scale 0 to 100), Foxtail, Green: 0
[3]; 31 g ai/ha
  Plant response rating, Foxtail, Green: 5
[3]; 62 g ai/ha
  Plant response rating, Foxtail, Green: 10
[3]; 125 g ai/ha
  Plant response rating, Foxtail, Green: 30
[4]; [21]
  Plant response rating, Barnyardgrass: 0
[4]; [22]
  Plant response rating, Barnyardgrass: 15
[4]; 125 g ai/ha, scale 0 to 100
  Plant response rating, Barnyardgrass: 15
[4]; 250 g ai/ha, scale 0 to 100
  Plant response rating, Barnyardgrass: 15
[5]; Postemergence, 16 g ai/ha
  Plant response rating, Speedwell: 75
[5]; Postemergence, 31 g ai/ha
  Speedwell plant response rating: 60
[5]; Postemergence, 125 g ai/ha
  Speedwell plant response rating: 75
[5]; postemergence, 62 g ai/ha
  Speedwell plant response rating: 70
[6]; [20]
  Plant response rating (scale 0 to 100), Wheat, Spring: 0
[6]; 31 g ai/ha
  Plant response rating, Wheat, Spring: 0
[6]; 62 g ai/ha
  Plant response rating, Wheat, Spring: 0
[6]; 125 g ai/ha
  Plant response rating, Wheat, Spring: 0
[7]; [20]
  Plant response rating (scale 0 to 100), Wheat, Winter: 0
[7]; 31 g ai/ha
  Plant response rating, Wheat, Winter: 0
[7]; 62 g ai/ha
  Plant response rating, Wheat, Winter: 0
[7]; 125 g ai/ha
  Plant response rating, Wheat, Winter: 5
[8]; [20]
  Plant response rating (scale 0 to 100), Oilseed Rape: 5
[8]; 31 g ai/ha
  Plant response rating, Oilseed Rape: 15
[8]; 62 g ai/ha
  Plant response rating, Oilseed Rape: 40
[8]; 125 g ai/ha
  Plant response rating, Oilseed Rape: 45
[9]; Postemergence, 16 g ai/ha
  Plant response rating, Chickweed: 15
[9]; Postemergence, 31 g ai/ha
  Chickweed plant response rating: 35
[9]; Postemergence, 125 g ai/ha
  Chickweed plant response rating: 65
[9]; postemergence, 62 g ai/ha
  Chickweed plant response rating: 25
[10]; Postemergence, 16 g ai/ha
  Plant response rating, Pigweed: 65
[10]; Postemergence, 31 g ai/ha
  Pigweed plant response rating: 50
[10]; Postemergence, 125 g ai/ha
  Pigweed plant response rating: 65
[10]; postemergence, 62 g ai/ha
  Pigweed plant response rating: 65
[11]; Postemergence, 16 g ai/ha
  Plant response rating, Bluegrass: 5
[11]; Postemergence, 31 g ai/ha
  Bluegrass plant response rating: 5
[11]; Postemergence, 125 g ai/ha
  Bluegrass plant response rating: 5
[11]; postemergence, 62 g ai/ha
  Bluegrass plant response rating: 5
[12]; Postemergence, 16 g ai/ha
  Plant response rating, Blackgrass: 0
[12]; Postemergence, 31 g ai/ha
  Blackgrass plant response rating: 0
[12]; Postemergence, 125 g ai/ha
  Blackgrass plant response rating: 0
[12]; postemergence, 62 g ai/ha
  Blackgrass plant response rating: 5
[13]; [21]
  Plant response rating, Rice: 0
[13]; [22]
  Plant response rating, Rice: 15
[13]; 125 g ai/ha, scale 0 to 100
  Plant response rating, Rice: 15
[13]; 250 g ai/ha, scale 0 to 100
  Plant response rating, Rice: 15
[14]; [21]
  Plant response rating, Ducksalad: 0
[14]; [22]
  Plant response rating, Ducksalad: 0
[14]; 125 g ai/ha, scale 0 to 100
  Plant response rating, Ducksalad: 0
[14]; 250 g ai/ha, scale 0 to 100
  Plant response rating, Ducksalad: 90
[15]; [20]
  Plant response rating (scale 0 to 100), Deadnettle: 0
[15]; 31 g ai/ha
  Plant response rating, Deadnettle: 5
[15]; 62 g ai/ha
  Plant response rating, Deadnettle: 10
[15]; 125 g ai/ha
  Plant response rating, Deadnettle: 20
[16]; [20]
  Plant response rating (scale 0 to 100), Blackgrass: 0
[16]; 31 g ai/ha
  Plant response rating, Blackgrass: 0
[16]; 62 g ai/ha
  Plant response rating, Blackgrass: 10
[16]; 125 g ai/ha
  Plant response rating, Blackgrass: 15
[17]; [20]
  Plant response rating (scale 0 to 100), Chickweed: 20
[17]; 31 g ai/ha
  Plant response rating, Chickweed: 70
[17]; 62 g ai/ha
  Plant response rating, Chickweed: 100
[17]; 125 g ai/ha
  Plant response rating, Chickweed: 100
[18]; Postemergence, 16 g ai/ha
  Plant response rating, Deadnettle: 10
[18]; Postemergence, 31 g ai/ha
  Deadnettle plant response rating: 15
[18]; Postemergence, 125 g ai/ha
  Deadnettle plant response rating: 30
[18]; postemergence, 62 g ai/ha
  Deadnettle plant response rating: 20
[19]; [20]
  Plant response rating (scale 0 to 100), Radish, Wild: 0
[19]; 31 g ai/ha
  Plant response rating, Radish, Wild: 15
[19]; 62 g ai/ha
  Plant response rating, Radish, Wild: 75
[19]; 125 g ai/ha
  Plant response rating, Radish, Wild: 100
